{"source": "patent US20110212100A1", "about": "“METHODS FOR MODULATING DEVELOPMENT AND EXPANSION OF IL-17 EXPRESSING CELLS” (priority 2007, published 2011)", "key": {"STAT3 phosphorylation": {"system": "STAT3 phosphorylation", "experiment": "Kinetics of STAT3 phosphorylation in developing Th17 cells", "assay_type": "cell-based, mouse", "method": "FIG. 11A is a series of graphs depicting representative histograms displaying the kinetics of STAT3 phosphorylation in developing Th17 cells treated with or without HF. Resting naïve T cells (shaded peak), T cells activated in the presence of TGFβ plus IL-6 (TGFβ/IL-6) treated with 10 nM MAZ1310, TGFβ/IL-6-activated T cells treated with 5 nM HF, TGFβ/IL-6-activated T cells treated with 10 nM HF. T cells were fixed at the indicated times and intracellular phospho-STAT3 staining was performed.\nFACS analyses and sorting: All cell surface staining was performed in FACS buffer (PBS/2% FCS/0.1% NaN3) and antibodies were incubated with cells on ice for 20-30 minutes. Cells were washed with FACS buffer and fixed with FACS buffer plus 1% paraformaldehyde prior to data acquisition. For phospho-STAT3 intracellular staining, stimulated T cells cultured with or without TGF plus IL-6 for the indicated times were harvested on ice and fixed in PBS plus 2% paraformaldehyde for 10 minutes at 37° C. Fixed cells were washed twice with staining buffer (PBS/1% BSA/0.1% NaN3) and then permeabilized with perm buffer III (BD Pharmingen) on ice for 30 minutes. […] All FACS data was acquired on a FACSCalibur flow cytometer (BD Pharmingen) and analyzed using FlowJo software (Treestar, Inc., Ashland, Oreg.). […]"}, "[1]": {"system": "B220+ B cells and CD8+ T cells", "experiment": "B cell and CD8+ T cell proliferation and function", "assay_type": "cell-based, mouse", "method": "The non-specific effects of HF on B and CD8+ T cells were evaluated. B220+ B cells or CD8+ T cells were isolated from the spleen and peripheral lymph nodes of C57B/6 mice. B cell proliferation and IL-6 production was induced by culturing the cells with LPS (0.5 μg/ml) for 4 days. The effects of HF on B cell function was determined by adding titrating amounts of HF (1.25 nM-40 nM) at the time of LPS stimulation. B cell proliferation was monitored by labeling cells with Carboxyfluorescein diacetate, succinimidyl ester (CFSE; 5 μM) prior to LPS stimulation and determining the rate of CFSE dilution after 4 days by flow cytometric analyses. LPS-induced IL-6 production by B cells was determined by intracellular staining on day 4, following PMA+Ionomycin+Brefeldin A re-stimulation as described above. For CD8+ T cell experiments, purified CD8+ T cells were labeled with CFSE as above and the T cells were activated using anti-CD3 (1 μg/ml) and anti-CD28 (1 μg/ml) antibodies. […] CD8+ T cell proliferation was determined by monitoring CFSE dilution on day 3-post activation; CD25 expression was determined by FACS staining on day 2 of culture; differentiation of CD8+ T cells into cytolytic T cells (CTL) was evaluated on day 4 by determining expression of IFNγ and granzyme B following PMA+Ionomycin+Brefeldin A re-stimulation. […]"}}, "data": [{"smiles": "O=C(CC1NCCCC1O)Cn1cnc2cc(Br)c(Cl)cc2c1=O", "note": "(racemic) [HF, 7-bromo-6-chloro-3-[3-(3-hydroxy-2-piperidinyl)-2-oxopropyl]-4(3H)-quinazolinone]", "values": [{"measurement": "time post activation at which maintenance of STAT3 phosphorylation begins to decrease", "setting": "STAT3 phosphorylation; 5 or 10 nM HF, TGFβ plus IL-6", "result": "around 12 hours"}, {"measurement": "effect on early STAT3 activation, in words", "setting": "STAT3 phosphorylation; first 6 hours of Th17 differentiation", "result": "did not interfere with STAT3 activation during the first 6 hours"}, {"measurement": "dose at which B and CD8+ T cells were profoundly impaired in proliferation and function", "setting": "[1]", "result": "greater than 20 nM"}, {"measurement": "effect on B and CD8+ T cell function or proliferation, in words", "setting": "[1]; doses lower than 10 nM", "result": "little or no effect"}]}]}
